Test results from US9963434B2, “N-arylmethyl sulfonamide negative modulators of NR2A” (LUC THERAPEUTICS, priority 2013, dated 2018).
Like-named read-outs stand apart in the source and are kept apart here.

Target: NR1/NR2A (Homo sapiens (Human), UniProt Q05586+Q12879)
Test: FDSS Ca2+ influx inhibition assay in HEK293 cells expressing NR1/NR2A
Assay type: cell-based
Conditions: 3 μM glutamate, 3 μM glycine, 1 mM Ca2+
Method in brief: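 Fluo-8-loaded HEK293 NR1/NR2A cells preincubated 10 min with compound at 10 μM final (0.1% DMSO) in Ca2+/Mg2+-free HBSS with 20 mM HEPES. Stimulated with 3 μM glutamate, 3 μM glycine, 1 mM Ca2+; FDSS recording for 3 min, end/baseline fluorescence ratio compared with MK801.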

[1] = inhibition relative to MK801, read-out: NR2A IC50

Chain of NR1/NR2A (Q12879 23-1464, other chains not shown): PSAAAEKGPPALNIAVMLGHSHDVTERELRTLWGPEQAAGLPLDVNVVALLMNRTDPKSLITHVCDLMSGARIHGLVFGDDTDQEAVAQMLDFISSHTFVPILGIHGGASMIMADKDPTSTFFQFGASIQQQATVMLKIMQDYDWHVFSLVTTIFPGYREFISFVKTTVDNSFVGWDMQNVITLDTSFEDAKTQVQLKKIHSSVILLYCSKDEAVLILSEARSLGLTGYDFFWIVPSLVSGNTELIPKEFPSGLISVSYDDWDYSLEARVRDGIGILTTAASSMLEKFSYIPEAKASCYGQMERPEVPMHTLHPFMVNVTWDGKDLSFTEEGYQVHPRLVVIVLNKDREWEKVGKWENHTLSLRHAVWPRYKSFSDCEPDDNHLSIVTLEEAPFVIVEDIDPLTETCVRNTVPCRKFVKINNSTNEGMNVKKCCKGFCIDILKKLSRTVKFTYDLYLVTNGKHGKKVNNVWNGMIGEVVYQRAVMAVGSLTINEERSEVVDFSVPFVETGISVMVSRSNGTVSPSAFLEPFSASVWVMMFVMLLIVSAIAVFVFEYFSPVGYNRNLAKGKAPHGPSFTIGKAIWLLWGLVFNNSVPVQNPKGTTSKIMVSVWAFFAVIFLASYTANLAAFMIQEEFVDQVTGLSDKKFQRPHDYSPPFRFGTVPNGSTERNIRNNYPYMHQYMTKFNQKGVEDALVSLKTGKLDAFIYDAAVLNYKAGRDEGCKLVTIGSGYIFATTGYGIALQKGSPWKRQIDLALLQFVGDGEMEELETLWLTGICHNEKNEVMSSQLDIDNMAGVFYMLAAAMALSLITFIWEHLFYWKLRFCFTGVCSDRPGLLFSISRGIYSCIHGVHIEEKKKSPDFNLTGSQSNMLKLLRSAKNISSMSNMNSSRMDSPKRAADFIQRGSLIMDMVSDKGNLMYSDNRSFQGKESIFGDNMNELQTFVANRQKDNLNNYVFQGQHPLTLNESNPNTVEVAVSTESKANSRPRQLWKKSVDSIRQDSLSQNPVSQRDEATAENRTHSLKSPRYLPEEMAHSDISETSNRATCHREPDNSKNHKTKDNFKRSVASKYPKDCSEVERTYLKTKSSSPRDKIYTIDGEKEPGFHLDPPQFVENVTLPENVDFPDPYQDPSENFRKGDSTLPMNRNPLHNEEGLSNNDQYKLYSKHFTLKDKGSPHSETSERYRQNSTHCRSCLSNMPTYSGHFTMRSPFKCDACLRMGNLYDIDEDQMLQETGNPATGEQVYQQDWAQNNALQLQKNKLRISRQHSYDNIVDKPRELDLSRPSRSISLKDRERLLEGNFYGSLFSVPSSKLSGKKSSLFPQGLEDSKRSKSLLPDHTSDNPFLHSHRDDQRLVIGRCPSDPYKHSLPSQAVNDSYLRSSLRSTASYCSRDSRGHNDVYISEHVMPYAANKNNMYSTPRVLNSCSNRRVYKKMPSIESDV

Structure (SMILES) | IC50 [1] | IC50 (read-out: Binned Activity)
Cc1ncc(CNC(=O)c2ccc(CNS(=O)(=O)c3ccc(Oc4ccccc4)nc3)cn2)s1 [N-[(2-methyl-1,3-thiazol-5-yl)methyl]-5-(6-phenoxypyridine-3-sulfonamidomethyl) pyridine-2-carboxamide] | 10 µM | > 10 µM
Cc1ncc(CNC(=O)c2ccc(CNS(=O)(=O)c3cccc4cccnc34)cn2)s1 [N-[(2-methyl-1,3-thiazol-5-yl)methyl]-5-(quinoline-8-sulfonamidomethyl) pyridine-2-carboxamide] | 10 µM | > 10 µM
Cc1ncc(CNC(=O)c2cnc(CNS(=O)(=O)c3cccs3)cn2)s1 [N-[(2-methyl-1,3-thiazol-5-yl)methyl]-5-(thiophene-2-sulfonamidomethyl) pyrazine-2-carboxamide] |  | 1 to 10 µM
Cc1ncc(CNC(=O)c2ccc(CNS(=O)(=O)c3cccs3)cn2)s1 [N-[(2-methyl-1,3-thiazol-5-yl)methyl]-5-(thiophene-2-sulfonamidomethyl) pyridine-2-carboxamide] |  | 1 to 10 µM
Cc1ncc(CNC(=O)c2cnc(CNS(=O)(=O)c3ccsc3)cn2)s1 [N-[(2-methyl-1,3-thiazol-5-yl)methyl]-5-(thiophene-3-sulfonamidomethyl) pyrazine-2-carboxamide] | 10 µM | > 10 µM
Cc1ncc(CNC(=O)c2ccc(CNS(=O)(=O)c3ccsc3)cn2)s1 [N-[(2-methyl-1,3-thiazol-5-yl)methyl]-5-(thiophene-3-sulfonamidomethyl) pyridine-2-carboxamide] | 10 µM | > 10 µM
Cc1ncc(CNC(=O)c2ccc(CNS(=O)(=O)c3ccc(-c4csnn4)cc3)cn2)s1 [N-[(2-methyl-1,3-thiazol-5-yl)methyl]-5-[4-(1,2,3-thiadiazol-4-yl)benzenesulfonamido-methyl]pyridine-2-carboxamide] | 10 µM | > 10 µM
Cc1ncc(CNC(=O)c2ccc(CNS(=O)(=O)c3ccc(C(F)(F)F)cc3)cn2)s1 [N-[(2-methyl-1,3-thiazol-5-yl)methyl]-5-[4-(trifluoromethyl)benzene-sulfonamidomethyl] pyridine-2-carboxamide] | 10 µM | > 10 µM
Cc1ncc(CNC(=O)c2ccc(CNS(=O)(=O)c3ccc(C(F)(F)F)nc3)cn2)s1 [N-[(2-methyl-1,3-thiazol-5-yl)methyl]-5-[6-(trifluoromethyl)pyridine-3-sulfonamidomethyl] pyridine-2-carboxamide] | 10 µM | > 10 µM
O=C(NCc1ccc(Cl)c(F)c1)c1ccc(CNS(=O)(=O)c2ccc(F)c(Cl)c2)cn1 [N-[(4-chloro-3-fluorophenyl)methyl]-5-(3-chloro-4-fluorobenzenesulfon-amidomethyl)pyridine-2-carboxamide] | 10 µM | > 10 µM
